Test results as given in patent US7851493B2, “Phenyl-1,2,4-oxadiazolone derivatives with phenyl group, processes for their preparation and their use as pharmaceuticals” (Sanofi-Aventis, priority 2005, dated 2010).
Read-outs that look alike come from different tables or passages of the source.

What was measured:
[1] = two weeks clinical trials in healthy volunteers; cited from earlier work
[2] = rhesus and cynomolgus monkeys; cited from earlier work
[3] = diabetic animal model; cited from earlier work
[4] = biological target: T1, human PPARalpha (Homo sapiens, UniProt Q07869); assay: Cellular PPARalpha assay (human GAL4 luciferase reporter, stably transfected HEK cell line); format: cell-based
T1 construct: amino acids S167-Y468; expressed in transfected cells; plasmid pcDNA3
T1 sequence (Q07869 167-468): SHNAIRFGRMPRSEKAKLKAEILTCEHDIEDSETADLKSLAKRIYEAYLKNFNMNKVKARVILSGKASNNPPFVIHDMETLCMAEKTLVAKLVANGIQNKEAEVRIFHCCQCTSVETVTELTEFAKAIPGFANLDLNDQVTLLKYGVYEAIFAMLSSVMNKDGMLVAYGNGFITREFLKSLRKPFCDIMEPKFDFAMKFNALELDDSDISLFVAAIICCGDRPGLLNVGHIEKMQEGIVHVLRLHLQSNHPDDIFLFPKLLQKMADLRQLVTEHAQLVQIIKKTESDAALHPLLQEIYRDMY
Method: Determination of EC50 Values of PPAR Agonists in the Cellular PPARalpha Assay
(§1) The potency of substances which bind to human PPARalpha and activate it in an agonistic manner is analyzed using a stably transfected HEK cell line (HEK=human embryo kidney) which is referred to here as PPARalpha reporter cell line. It contains two genetic elements, a luciferase reporter element (pdeltaM-GAL4-Luc-Zeo) and a PPARalpha fusion protein (GR-GAL4-humanPPARalpha-LBD) which mediates expression of the luciferase reporter element depending on a PPARalpha ligand. The stably and constitutively expressed fusion protein GR-GAL4-humanPPARalpha-LBD binds in the cell nucleus of the PPARalpha reporter cell line via the GAL4 protein portion to the GAL4 DNA binding motifs 5′-upstream of the luciferase reporter element which is stably integrated in the genome of the cell line. There is only weak expression of the luciferase reporter gene in the absence of a PPARalpha ligand if fatty acid-depleted fetal calf serum (cs-FCS) is used in the assay. PPARalpha ligands bind and activate the PPARalpha fusion protein and thereby stimulate the expression of the luciferase reporter gene. The luciferase which is formed can be detected by means of chemiluminescence via an appropriate substrate.
Construction of the PPARalpha Reporter Cell Line
The PPARalpha reporter cell line was prepared in two stages. Firstly, the luciferase reporter element was constructed and stably transfected into HEK cells. For this purpose, five binding sites of the yeast transcription factor GAL4 (Accession #AF264724) were cloned in 5′-upstream of a 68 bp-long minimal MMTV promoter (Accession #V01175). The minimal MMTV promoter section contains a […] and a TATA element in order to enable efficient transcription by RNA polymerase II. The cloning and sequencing of the GAL4-MMTV construct took place in analogy to the description of Sambrook J. et al. (Molecular cloning, Cold Spring Harbor Laboratory Press, 1989). Then the complete Photinus pyralis gene (Accession #15077) was cloned in 3′-downstream of the GAL4-MMTV element. After sequencing, the luciferase reporter element consisting of five GAL4 binding sites, MMTV promoter and luciferase gene was recloned into a plasmid which confers zeocin resistance in order to obtain the plasmid pdeltaM-GAL4-Luc-Zeo. This vector was transfected into HEK cells in accordance with the statements in Ausubel, F. M. et al. (Current protocols in molecular biology, Vol. 1-3, John Wiley & Sons, Inc., 1995).
In a second step, the PPARalpha fusion protein (GR-GAL4-humanPPARalpha-LBD was introduced into the stable cell clone described. For this purpose, initially the cDNA coding for the N-terminal 76 amino acids of the glucocorticoid receptor (Accession #P04150) was linked to the cDNA section coding for amino acids 1-147 of the yeast transcription factor GAL4 (Accession #P04386). The cDNA of the ligand-binding domain of the human PPARalpha receptor (amino acids S167-Y468; Accession #S74349) was cloned in at the 3′-end of this GR-GAL4 construct. The fusion construct prepared in this way (GR-GAL4-humanPPARalpha-LBD) was recloned into the plasmid pcDNA3 (Invitrogen) in order to enable constitutive expression therein by the cytomegalovirus promoter. This plasmid was linearized with a restriction endonuclease and stably transfected into the previously described cell clone containing the luciferase reporter element. The finished PPARalpha reporter cell line which contains a luciferase reporter element and constitutively expresses the PPARalpha fusion protein (GR-GAL4-human PPARalpha-LBD) was isolated by selection with zeocin (0.5 mg/ml) and G418 (0.5 mg/ml).
The activity of PPARalpha agonists is determined in a 3-day assay, which is described below: […]

[5] = biological target: T2, human PPARdelta (Homo sapiens, UniProt Q03181); assay: Cellular PPARdelta assay (human GAL4 luciferase reporter, stably transfected HEK cell line); format: cell-based
T2 construct: amino acids S139-Y441; expressed in transfected cells; plasmid pcDNA3
T2 sequence (Q03181 139-441): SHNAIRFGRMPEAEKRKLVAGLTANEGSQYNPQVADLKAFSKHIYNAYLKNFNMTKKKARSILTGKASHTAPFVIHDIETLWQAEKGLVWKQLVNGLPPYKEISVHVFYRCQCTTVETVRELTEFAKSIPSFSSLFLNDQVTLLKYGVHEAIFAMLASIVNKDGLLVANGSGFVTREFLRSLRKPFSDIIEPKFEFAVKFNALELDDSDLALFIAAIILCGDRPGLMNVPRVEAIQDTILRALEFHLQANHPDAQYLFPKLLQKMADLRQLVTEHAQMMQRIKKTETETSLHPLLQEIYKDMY
Method: Determination of EC50 Values of PPAR Agonists in the Cellular PPARdelta Assay
as §1, with “PPARdelta” for “PPARalpha”, “In analogy to the assay described for PPARalpha, the PPARdelta reporter cell line also” for “It”, “(GR-GAL4-humanPPARdelta-LBD)” for “(GR-GAL4-humanPPARalpha-LBD)”, “GR-GAL4-humanPPARdelta-LBD” for “GR-GAL4-humanPPARalpha-LBD”, “little” for “weak”, “stimulate” for “stimulate the”
Construction of the PPARdelta Reporter Cell Line
The production of the stable PPARdelta reporter cell line is based on a stable HEK-cell clone which was stably transfected with a luciferase reporter element. This step was already described above in the section “construction of the PPARalpha reporter cell line”. In a second step, the PPARdelta fusion protein (GR-GAL4-humanPPARdelta-LBD was stably introduced into this cell clone. For this purpose, the cDNA coding for the N-terminal 76 amino acids of the glucocorticoid receptor (Accession #P04150) was linked to the cDNA section coding for amino acids 1-147 of the yeast transcription factor GAL4 (Accession #P04386). The cDNA of the ligand-binding domain of the human PPARdelta receptor (amino acids S139-Y441; Accession #L07592) was cloned in at the 3′-end of this GR-GAL4 construct. The fusion construct prepared in this way (GR-GAL4-humanPPARdelta-LBD) was recloned into the plasmid pcDNA3 (Invitrogen) in order to enable constitutive expression by the cytomegalovirus promoter. This plasmid was linearized with a restriction endonuclease and stably transfected into the previously described cell clone containing the luciferase reporter element. The resulting PPARdelta reporter cell line which contains a luciferase reporter element and constitutively expresses the PPARdelta fusion protein (GR-GAL4-human PPARdelta-LBD) was isolated by selection with zeocin (0.5 mg/ml) and G418 (0.5 mg/ml).
Assay Procedure and Evaluation
The activity of PPARdelta agonists is determined in a 3-day assay in exact analogy to the procedure already described for the PPARalpha reporter cell line except that the PPARdelta reporter cell line and a specific PPARdelta agonist was used as a standard to control test efficacy.

| Structure (SMILES) | plasma lipids [1] | plasma lipids [2] | plasma cholesterol [3] | EC50 [4] | EC50 [5] |
| --- | --- | --- | --- | --- | --- |
| CCCc1c(OCCCSc2nnc(SCC(=O)O)s2)ccc(C(C)=O)c1O [YM-16638] | acts in a similar manner | significantly lowers | – | – | – |
| CCCc1c(OCCCOc2ccc(OCC(=O)O)cc2)ccc(C(C)=O)c1O [Example L-165041] | – | – | raises | – | – |
| COc1cc(OCc2sc(-c3ccc(C(F)(F)F)cc3)nc2CN2CCC(C(F)(F)F)C2)ccc1-c1noc(=O)[nH]1 (racemic) [Example 9, 3-{2-Methoxy-4-[2-(4-trifluoromethyl-phenyl)-4-(3-trifluoromethyl-pyrrolidin-1-ylmethyl)thiazol-5-ylmethoxy]-phenyl}-4H-[1,2,4]oxadiazol-5-one] | – | – | – | 729 nM | 56 nM |
| COc1cc(OCc2sc(-c3ccc(C(F)(F)F)cc3)nc2CN2CCC(C(F)(F)F)CC2)ccc1-c1noc(=O)[nH]1 [Example 1, 3-{2-Methoxy-4-[2-(4-trifluoromethyl-phenyl)-4-(4-trifluoromethyl-piperidin-1-ylmethyl)-thiazol-5-ylmethoxy]-phenyl}-4H-[1,2,4]oxadiazol-5-one] | – | – | – | 830 nM | 56 nM |
| COc1ccc(-c2nc(COc3ccc(-c4noc(=O)[nH]4)c(C)c3)c(CN3CCOCC3)o2)cc1 [Example 68, 3-{4-[2-(4-Methoxy-phenyl)-5-morpholin-4-ylmethyl-oxazol-4-ylmethoxy]-2-methyl-phenyl}-4H-[1,2,4]oxadiazol-5-one] | – | – | – | 1200 nM | 661 nM |
